Assay results reported in PubChem BioAssay (NCI).
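Interpolation was linear, between the two tested concentrations surrounding the appropriate level; five concentrations were tested over 48 hours in 96-well plates. TGI denotes the concentration required for complete inhibition of growth.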

What was measured:
Experiment in all cases: DTP human tumour cell line panel, 48 h
SNB-19 CNS = tested on: SNB-19 CNS
SK-MEL-5 melanoma = tested on: SK-MEL-5 melanoma
SW-620 colon = tested on: SW-620 colon
HOP-92 NSCLC = tested on: HOP-92 NSCLC
BT-549 breast = tested on: BT-549 breast
U251 CNS = tested on: U251 CNS
MDA-N = tested on: MDA-N
SF-295 CNS = tested on: SF-295 CNS
CAKI-1 renal = tested on: CAKI-1 renal
OVCAR-4 ovarian = tested on: OVCAR-4 ovarian
HCT-15 colon = tested on: HCT-15 colon
ACHN renal = tested on: ACHN renal
HCT-116 colon = tested on: HCT-116 colon
SF-539 CNS = tested on: SF-539 CNS
MOLT-4 leukemia = tested on: MOLT-4 leukemia
M14 melanoma = tested on: M14 melanoma
RPMI-8226 leukemia = tested on: RPMI-8226 leukemia
HT29 colon = tested on: HT29 colon
SK-MEL-28 melanoma = tested on: SK-MEL-28 melanoma
RXF 393 renal = tested on: RXF 393 renal
SR leukemia = tested on: SR leukemia
T-47D breast = tested on: T-47D breast
K-562 leukemia = tested on: K-562 leukemia
UACC-257 melanoma = tested on: UACC-257 melanoma
EKVX NSCLC = tested on: EKVX NSCLC
SN12C renal = tested on: SN12C renal
PC-3 prostate = tested on: PC-3 prostate
OVCAR-8 ovarian = tested on: OVCAR-8 ovarian
A549 NSCLC = tested on: A549 NSCLC
NCI-H460 lung = tested on: NCI-H460 lung
MDA-MB-435 = tested on: MDA-MB-435
HOP-62 NSCLC = tested on: HOP-62 NSCLC
NCI-H23 lung = tested on: NCI-H23 lung
SK-MEL-2 melanoma = tested on: SK-MEL-2 melanoma
COLO 205 colon = tested on: COLO 205 colon
MCF7 breast = tested on: MCF7 breast
DU-145 prostate = tested on: DU-145 prostate
CCRF-CEM leukemia = tested on: CCRF-CEM leukemia
OVCAR-5 ovarian = tested on: OVCAR-5 ovarian
NCI/ADR-RES ovarian = tested on: NCI/ADR-RES ovarian
786-0 renal = tested on: 786-0 renal
LOX IMVI melanoma = tested on: LOX IMVI melanoma
SNB-75 CNS = tested on: SNB-75 CNS
MALME-3M melanoma = tested on: MALME-3M melanoma
SF-268 CNS = tested on: SF-268 CNS
KM12 colon = tested on: KM12 colon
TK-10 renal = tested on: TK-10 renal
OVCAR-3 ovarian = tested on: OVCAR-3 ovarian
SK-OV-3 ovarian = tested on: SK-OV-3 ovarian
IGROV1 ovarian = tested on: IGROV1 ovarian
MDA-MB-231 breast = tested on: MDA-MB-231 breast
HS 578T breast = tested on: HS 578T breast
UACC-62 melanoma = tested on: UACC-62 melanoma
A498 renal = tested on: A498 renal
NCI-H522 lung = tested on: NCI-H522 lung
UO-31 renal = tested on: UO-31 renal
HL-60(TB) leukemia = tested on: HL-60(TB) leukemia
NCI-H226 lung = tested on: NCI-H226 lung

Which results are given for `CC(C)(C)c1ccc(O)c(CN(Cc2c(O)ccc3ccccc23)C2CCCCC2)c1`?
TGI (SNB-19 CNS): 43.9 µM; TGI (SK-MEL-5 melanoma): 30.2 µM; TGI (SW-620 colon): 85.2 µM; TGI (HOP-92 NSCLC): 30.7 µM; TGI (BT-549 breast): 34.4 µM; TGI (U251 CNS): 29.4 µM; TGI (MDA-N): 29.3 µM; TGI (SF-295 CNS): 38.1 µM; TGI (CAKI-1 renal): 32.2 µM; TGI (OVCAR-4 ovarian): 58.6 µM; TGI (HCT-15 colon): 31 µM; TGI (ACHN renal): 33.3 µM; TGI (HCT-116 colon): 30.9 µM; TGI (SF-539 CNS): 30.8 µM; TGI (MOLT-4 leukemia): 54.9 µM; TGI (M14 melanoma): 25.7 µM; TGI (RPMI-8226 leukemia): > 100 µM; TGI (HT29 colon): 31.6 µM; TGI (SK-MEL-28 melanoma): 46 µM; TGI (RXF 393 renal): 33.6 µM; TGI (SR leukemia): 52.2 µM; TGI (T-47D breast): 44.3 µM; TGI (K-562 leukemia): 52.1 µM; TGI (UACC-257 melanoma): 29.3 µM; TGI (EKVX NSCLC): 30 µM; TGI (SN12C renal): 33.1 µM; TGI (PC-3 prostate): 28.5 µM; TGI (OVCAR-8 ovarian): 31.8 µM; TGI (A549 NSCLC): 48.9 µM; TGI (NCI-H460 lung): 30.4 µM; TGI (MDA-MB-435): 52.6 µM; TGI (HOP-62 NSCLC): 36.9 µM; TGI (NCI-H23 lung): 35.3 µM; TGI (SK-MEL-2 melanoma): 31.3 µM; TGI (COLO 205 colon): 29.3 µM; TGI (MCF7 breast): 31.9 µM; TGI (DU-145 prostate): 60.9 µM; TGI (CCRF-CEM leukemia): > 100 µM; TGI (OVCAR-5 ovarian): 32.4 µM; TGI (NCI/ADR-RES ovarian): 32.4 µM; TGI (786-0 renal): 29.2 µM; TGI (LOX IMVI melanoma): 23.9 µM; TGI (SNB-75 CNS): 32.3 µM; TGI (MALME-3M melanoma): 31.9 µM; TGI (SF-268 CNS): 30.9 µM; TGI (KM12 colon): 39.6 µM; TGI (TK-10 renal): 29.2 µM; TGI (OVCAR-3 ovarian): 34.3 µM; TGI (SK-OV-3 ovarian): 58.6 µM; TGI (IGROV1 ovarian): 32.7 µM; TGI (MDA-MB-231 breast): 30.6 µM; TGI (HS 578T breast): 84.3 µM; TGI (UACC-62 melanoma): 30.1 µM; TGI (A498 renal): 37.6 µM; TGI (NCI-H522 lung): 28.9 µM; TGI (UO-31 renal): 29.2 µM

Which results are given for `O=C1C[C@@H](Sc2ccccc2)C2(OCCO2)C2ON3CCCC[C@H]3[C@H]12` (some centres undefined)?
TGI (SNB-19 CNS): 32.1 µM; TGI (SK-MEL-5 melanoma): 20.7 µM; TGI (SW-620 colon): 14.4 µM; TGI (HOP-92 NSCLC): 19.2 µM; TGI (BT-549 breast): 20.7 µM; TGI (HL-60(TB) leukemia): 4.9 µM; TGI (U251 CNS): > 39.5 µM; TGI (MDA-N): 33.3 µM; TGI (SF-295 CNS): 38.4 µM; TGI (CAKI-1 renal): 21 µM; TGI (OVCAR-4 ovarian): 21.8 µM; TGI (HCT-15 colon): > 29.6 µM; TGI (ACHN renal): 6.33 µM; TGI (HCT-116 colon): 16.7 µM; TGI (SF-539 CNS): 4.5 µM; TGI (MOLT-4 leukemia): 5.1 µM; TGI (M14 melanoma): 30.3 µM; TGI (RPMI-8226 leukemia): 12.5 µM; TGI (HT29 colon): 15.7 µM; TGI (SK-MEL-28 melanoma): 41.6 µM; TGI (RXF 393 renal): 12.3 µM; TGI (SR leukemia): 4.35 µM; TGI (T-47D breast): 46.8 µM; TGI (K-562 leukemia): 6.79 µM; TGI (UACC-257 melanoma): 28.1 µM; TGI (EKVX NSCLC): 26.1 µM; TGI (SN12C renal): 14.8 µM; TGI (PC-3 prostate): 24.2 µM; TGI (OVCAR-8 ovarian): 13.9 µM; TGI (A549 NSCLC): 31.4 µM; TGI (NCI-H460 lung): 28.8 µM; TGI (MDA-MB-435): 34.7 µM; TGI (HOP-62 NSCLC): 33 µM; TGI (NCI-H23 lung): 22.8 µM; TGI (SK-MEL-2 melanoma): 39.8 µM; TGI (COLO 205 colon): 27.1 µM; TGI (MCF7 breast): 14.3 µM; TGI (DU-145 prostate): 24.5 µM; TGI (CCRF-CEM leukemia): 4.71 µM; TGI (OVCAR-5 ovarian): 33.5 µM; TGI (NCI/ADR-RES ovarian): 18.9 µM; TGI (786-0 renal): 12.7 µM; TGI (LOX IMVI melanoma): 10.1 µM; TGI (NCI-H226 lung): 33.2 µM; TGI (SNB-75 CNS): 29.9 µM; TGI (MALME-3M melanoma): 22.9 µM; TGI (SF-268 CNS): 23.3 µM; TGI (KM12 colon): 19.7 µM; TGI (TK-10 renal): 13 µM; TGI (OVCAR-3 ovarian): 26.8 µM; TGI (SK-OV-3 ovarian): > 100 µM; TGI (IGROV1 ovarian): 19.2 µM; TGI (MDA-MB-231 breast): 25.9 µM; TGI (HS 578T breast): 31 µM; TGI (UACC-62 melanoma): 18.5 µM; TGI (A498 renal): > 95.3 µM; TGI (NCI-H522 lung): 6.93 µM; TGI (UO-31 renal): 17.3 µM
